Where two headings read alike, the source gives them in different places.
Target: T1, sGC enzyme (Homo sapiens, UniProt Q02108+Q02153)
T1 construct: incorporated into these cells detect cGMP formed by the compounds stimulating the sGC enzyme; host or cells: HEK293 cells stably expressing GloSensor 40F cGMP biosensor
T1 sequence (Q02153 1-619): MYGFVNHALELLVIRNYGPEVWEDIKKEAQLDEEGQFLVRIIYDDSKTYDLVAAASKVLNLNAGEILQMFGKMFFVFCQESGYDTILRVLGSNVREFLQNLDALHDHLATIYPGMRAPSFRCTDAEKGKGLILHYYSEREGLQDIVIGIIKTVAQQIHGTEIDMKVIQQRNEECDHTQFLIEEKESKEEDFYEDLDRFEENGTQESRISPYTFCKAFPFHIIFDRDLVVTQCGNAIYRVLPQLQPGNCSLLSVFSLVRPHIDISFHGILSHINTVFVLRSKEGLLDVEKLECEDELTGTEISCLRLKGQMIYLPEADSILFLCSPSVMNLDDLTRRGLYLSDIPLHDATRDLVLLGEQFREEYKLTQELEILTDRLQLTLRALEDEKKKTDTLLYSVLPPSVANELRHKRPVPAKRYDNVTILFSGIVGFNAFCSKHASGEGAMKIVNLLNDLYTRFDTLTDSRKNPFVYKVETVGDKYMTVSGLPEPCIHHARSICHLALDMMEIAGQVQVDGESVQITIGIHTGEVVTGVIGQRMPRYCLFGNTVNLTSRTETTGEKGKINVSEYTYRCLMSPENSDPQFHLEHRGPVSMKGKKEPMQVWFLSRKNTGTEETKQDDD
T1 sequence (Q02108 1-690): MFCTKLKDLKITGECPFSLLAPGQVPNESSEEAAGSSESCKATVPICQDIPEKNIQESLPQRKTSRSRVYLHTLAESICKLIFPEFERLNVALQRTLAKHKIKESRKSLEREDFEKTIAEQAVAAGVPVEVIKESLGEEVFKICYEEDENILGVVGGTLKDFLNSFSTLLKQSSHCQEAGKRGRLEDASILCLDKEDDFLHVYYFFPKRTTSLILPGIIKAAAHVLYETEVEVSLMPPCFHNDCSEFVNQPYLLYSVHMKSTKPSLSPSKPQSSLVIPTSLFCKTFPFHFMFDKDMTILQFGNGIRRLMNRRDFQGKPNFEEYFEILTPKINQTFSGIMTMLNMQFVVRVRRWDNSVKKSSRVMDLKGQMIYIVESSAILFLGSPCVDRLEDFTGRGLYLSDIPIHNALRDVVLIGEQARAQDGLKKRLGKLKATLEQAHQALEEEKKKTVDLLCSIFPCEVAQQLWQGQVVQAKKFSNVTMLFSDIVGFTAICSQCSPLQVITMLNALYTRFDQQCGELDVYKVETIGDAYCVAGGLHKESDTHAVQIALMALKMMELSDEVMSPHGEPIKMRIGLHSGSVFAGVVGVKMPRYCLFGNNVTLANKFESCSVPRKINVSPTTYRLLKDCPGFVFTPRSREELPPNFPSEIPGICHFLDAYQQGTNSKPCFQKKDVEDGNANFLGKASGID
Assay: cGMP GloSensor cell-based assay, 384-well format
Conditions: HEK293 cells expressing GloSensor 40F cGMP, 10 μM DETA-NONOate, normalized to 30 μM Compound Y
Text: Human embryonic kidney cells (HEK293) cells expressing GloSensor™ 40F cGMP (Part No: CS182801, Promega) were used to evaluate the activity of test compounds. The luminescent biosensors (engineered luciferase) that were incorporated into these cells detect cGMP formed by the compounds stimulating the sGC enzyme and emit luminescence.
cGMP GloSensor cells were maintained in Dulbecco's Modification of Eagle's Medium (DMEM) supplemented with fetal bovine serum (FBS, 10% final) and hygromycine (200 ug/ml). […] Cells were incubated overnight at 37° C. in a humidified chamber with 5% CO2. The next day, medium was removed and cells were replaced with 40 ul/well of GloSensor™, 2 mM (Promega Cat No E1291). Cells were treated for 90 minutes at 25° C. to allow the substrate to equilibrate in the cells. […] For endpoint SAR screening, data were collected after 55 min incubation at room temperature.
Data were fit using a 4-parameter fit (log(agonist) vs. response—variable slope) using GraphPad Prism Software v.5. n=2 for all compounds. […] Compounds failing to elicit a minimum response of 50% are reported as >30 μM or ND.

[1] = compounds in Table IA, read-out: Glo-sensor AbsEC50

Row | SMILES | EC50 [1] [nM] | EC50 (compounds in Table IB, read-out: Glo-sensor Abs EC50) [nM]
1 | Fc1ccccc1Cn1nc(-c2nc(Cn3ccnc3)n[nH]2)c2cccnc21 [Compound I-99, 3-(3-((1H-imidazol-1-yl)methyl)-1H-1,2,4-triazol-5-yl)-1-(2-fluorobenzyl)-1H-pyrazolo[3,4-b]pyridine] | 100 to 1000 | 
2 | O=C(N1CC(c2n[nH]c(-c3nn(Cc4ccccc4F)c4ncccc34)n2)C1)C(F)(F)F [Compound I-75] | 100 to 1000 | 
3 | Fc1ccccc1Cc1nc(-c2nc(C(F)(F)F)n[nH]2)n2ccncc12 [Compound I-44, 1-(2-Fluorobenzyl)-3-(3-(trifluoromethyl)-1H-1,2,4-triazol-5-yl)imidazo[1,5-a]pyrazine] |  | > 1000
4 | [2H]C([2H])([2H])c1n[nH]c(-c2nn(Cc3ccccc3F)c3ncccc23)n1 [Compound I-91, 1-(2-Fluorobenzyl)-3-(3-(methyl-d3)-1H-1,2,4-triazol-5-yl)-1H-pyrazolo[3,4-b]pyridine] | < 100 | 
5 | Fc1ccccc1Cn1nc(-c2nc(N3CC(F)(F)C3)n[nH]2)c2cccnc21 [Compound I-88, 3-(3-(3,3-difluoroazetidin-1-yl)-1H-1,2,4-triazol-5-yl)-1-(2-fluorobenzyl)-1H-pyrazolo[3,4-b]pyridine] | > 1000 | 
6 | CN(C)C(=O)c1n[nH]c(-c2nn(Cc3ccccc3F)c3ncccc23)n1 [Compound I-74, 5-(1-(2-fluorobenzyl)-1H-pyrazolo[3,4-b]pyridin-3-yl)-N,N-dimethyl-1H-1,2,4-triazole-3-carboxamide] | 100 to 1000 | 
7 | NC(=O)c1n[nH]c(-c2nn(Cc3ccccc3F)c3ncccc23)n1 [Compound I-40, 5-(1-(2-fluorobenzyl)-1H-pyrazolo[3,4-b]pyridin-3-yl)-1H-1,2,4-triazole-3-carboxamide] | 100 to 1000 | 
8 | Fc1ccccc1Cn1nc(-c2nc(C(F)(F)F)n[nH]2)c2ccnnc21 [Compound I-100, 1-(2-Fluorobenzyl)-3-(3-(trifluoromethyl)-1H-1,2,4-triazol-5-yl)-1H-pyrazolo[3,4-c]pyridazine] | 100 to 1000 | 
9 | Fc1cc(F)cc(Cn2nc(-c3nc(C(F)(F)F)n[nH]3)c3cccnc32)c1 [Compound I-51, 1-(3,5-Difluorobenzyl)-3-(3-(trifluoromethyl)-1H-1,2,4-triazol-5-yl)-1H-pyrazolo[3,4-b]pyridine] | < 100 | 
10 | FC(F)c1n[nH]c(-n2nc(Cc3ccccc3)c3ncccc32)n1 [Compound I-129] | > 1000 | 
11 | NC1(c2n[nH]c(-c3nn(Cc4ccccc4F)c4ncccc34)n2)COC1 [Compound I-79, 3-(5-(1-(2-fluorobenzyl)-1H-pyrazolo[3,4-b]pyridin-3-yl)-1H-1,2,4-triazol-3-yl)oxetan-3-amine] | > 1000 | 
12 | Fc1cccc(Cn2nc(-c3nc(C(F)F)n[nH]3)c3cccnc32)c1F [Compound I-67, 1-(2,3-Difluorobenzyl)-3-(3-(difluoromethyl)-1H-1,2,4-triazol-5-yl)-1H-pyrazolo[3,4-b]pyridine] | < 100 | 
13 | Fc1ccccc1Cn1nc(-c2nc(C(F)(F)Cl)n[nH]2)c2cccnc21 [Compound I-65, 3-(3-(Chlorodifluoromethyl)-1H-1,2,4-triazol-5-yl)-1-(2-fluorobenzyl)-1H-pyrazolo[3,4-b]pyridine] | < 100 | 
14 | Fc1ccccc1Cn1nc(-c2nc(C3CCOCC3)n[nH]2)c2cccnc21 [Compound I-78, 1-(2-Fluorobenzyl)-3-(3-(tetrahydro-2H-pyran-4-yl)-1H-1,2,4-triazol-5-yl)-1H-pyrazolo[3,4-b]pyridine] | > 1000 | 
15 | Fc1cccc(Cn2nc(-c3nc(C(F)(F)F)n[nH]3)c3cccnc32)c1 [Compound I-52, 1-(3-Fluorobenzyl)-3-(3-(trifluoromethyl)-1H-1,2,4-triazol-5-yl)-1H-pyrazolo[3,4-b]pyridine] | < 100 | 

Second part, the compound after the results:

Row | EC50 [1] [nM] | EC50 (compounds in Table IB, read-out: Glo-sensor Abs EC50) [nM] | SMILES
16 | 100 to 1000 |  | Fc1cc(F)cc(Cc2nn(-c3nc(C(F)F)n[nH]3)c3cccnc23)c1 [Compound I-123, 3-(3,5-Difluorobenzyl)-1-(3-(difluoromethyl)-1H-1,2,4-triazol-5-yl)-1H-pyrazolo[4,3-b]pyridine]
17 | 100 to 1000 |  | Cc1ncc(Cn2nc(-c3nc(C(F)(F)F)n[nH]3)c3cccc(Cl)c32)cn1 [Compound I-46, 7-Chloro-1-((2-methylpyrimidin-5-yl)methyl)-3-(3-(trifluoromethyl)-1H-1,2,4-triazol-5-yl)-1H-indazole]
18 | < 100 |  | Cc1ccc(Cn2nc(-c3nc(C(F)(F)F)n[nH]3)c3cccnc32)cc1 [Compound I-54, 1-(4-Methylbenzyl)-3-(3-(trifluoromethyl)-1H-1,2,4-triazol-5-yl)-1H-pyrazolo[3,4-b]pyridine]
19 | 100 to 1000 |  | Fc1ccccc1Cn1nc(-c2nc(CCCCl)n[nH]2)c2cccnc21 [Compound I-69, 3-(3-(3-chloropropyl)-1H-1,2,4-triazol-5-yl)-1-(2-fluorobenzyl)-1H-pyrazolo[3,4-b]pyridine]
20 | < 100 |  | CC1(c2n[nH]c(-c3nn(Cc4ccccc4F)c4ncccc34)n2)CC1 [Compound I-63, 1-(2-Fluorobenzyl)-3-(3-(1-methylcyclopropyl)-1H-1,2,4-triazol-5-yl)-1H-pyrazolo[3,4-b]pyridine]
21 | > 1000 |  | Fc1ccccc1Cn1nc(-c2nc(C(F)(F)F)n[nH]2)c2ncccc21 [Compound I-35, 1-(2-Fluorobenzyl)-3-(3-(trifluoromethyl)-1H-1,2,4-triazol-5-yl)-1H-pyrazolo[4,3-b]pyridine]
22 | < 100 |  | Fc1ccccc1Cn1nc(-c2nc(C3CC3)n[nH]2)c2cccnc21 [Compound I-68, 3-(3-Cyclopropyl-1H-1,2,4-triazol-5-yl)-1-(2-fluorobenzyl)-1H-pyrazolo[3,4-b]pyridine]
23 | 100 to 1000 |  | CC(=O)Nc1n[nH]c(-c2nn(Cc3ccccc3F)c3ncccc23)n1 [Compound I-103]
24 | 100 to 1000 |  | Fc1n[nH]c(-c2nn(Cc3ccccc3F)c3ncccc23)n1 [Compound I-45, 3-(3-fluoro-1H-1,2,4-triazol-5-yl)-1-(2-fluorobenzyl)-1H-pyrazolo[3,4-b]pyridine]
25 | 100 to 1000 |  | CN(C)c1n[nH]c(-c2nn(Cc3ccccc3F)c3ncccc23)n1 [Compound I-90]
26 | < 100 |  | Cc1ncc(Cn2nc(-c3nc(C(F)(F)F)n[nH]3)c3ccc(F)cc32)cn1 [Compound I-61, 6-Fluoro-1-((2-methylpyrimidin-5-yl)methyl)-3-(3-(trifluoromethyl)-1H-1,2,4-triazol-5-yl)-1H-indazole]
27 | 100 to 1000 |  | Fc1cccc(Cc2nn(-c3nc(C(F)F)n[nH]3)c3cccnc23)c1 [Compound I-122, 1-(3-(Difluoromethyl)-1H-1,2,4-triazol-5-yl)-3-(3-fluorobenzyl)-1H-pyrazolo[4,3-b]pyridine]
28 | < 100 |  | Fc1ccccc1Cn1nc(-c2nc(Cl)n[nH]2)c2cccnc21 [Compound I-47, 3-(3-Chloro-1H-1,2,4-triazol-5-yl)-1-(2-fluorobenzyl)-1H-pyrazolo[3,4-b]pyridine]
29 | 100 to 1000 |  | COCc1n[nH]c(-c2nn(Cc3ccccc3F)c3ncccc23)n1 [Compound I-112, 1-(2-Fluorobenzyl)-3-(3-(methoxymethyl)-1H-1,2,4-triazol-5-yl)-1H-pyrazolo[3,4-b]pyridine]
